Results reported in patent publication US20080027006A1 (priority 2004, published 2008).

Target: HR-N and HR-C regions of the SARS-CoV S glycoprotein (Severe acute respiratory syndrome coronavirus, UniProt P59594)
Assay type: binding, SARS coronavirus (Urbani strain)

Q: Which “interaction with HR-C1 (in words)” value does the source give for `CC[C@H](C)[C@H](NC(=O)[C@H](CCC(N)=O)NC(=O)[C@H](CO)NC(=O)[C@@H](NC(=O)[C@H](C)NC(=O)[C@H](CCCCN)NC(=O)[C@H](CC(N)=O)NC(=O)[C@H](Cc1ccccc1)NC(=O)[C@H](CCC(N)=O)NC(=O)[C@H](CC(N)=O)NC(=O)[C@H](C)NC(=O)[C@@H](NC(=O)[C@H](CCC(N)=O)NC(=O)[C@H](CCCCN)NC(=O)[C@H](CCC(N)=O)NC(=O)[C@H](CC(N)=O)NC(=O)[C@H](CCC(=O)O)NC(=O)[C@H](Cc1ccc(O)cc1)NC(=O)[C@H](CC(C)C)NC(=O)[C@@H](NC(=O)[C@H](CC(N)=O)NC(=O)[C@H](CCC(N)=O)NC(=O)[C@@H](NC(=O)[C@@H](NC(=O)CNC(=O)[C@@H](NC(=O)CNC(=O)[C@H](CC(N)=O)NC(=O)[C@H](Cc1ccccc1)NC(=O)[C@H](CCCNC(=N)N)NC(=O)[C@H](Cc1ccc(O)cc1)NC(=O)[C@H](C)NC(=O)[C@H](CCSC)NC(=O)[C@H](CCC(N)=O)NC(=O)[C@H](CCSC)NC(C)=O)[C@@H](C)CC)C(C)C)[C@@H](C)O)C(C)C)[C@@H](C)CC)[C@@H](C)CC)C(N)=O` [HR-N5] here?
A: no detectable interaction

Q: `CC[C@H](C)[C@H](NC(=O)[C@H](C)NC(=O)[C@H](CCCCN)NC(=O)[C@H](CC(N)=O)NC(=O)[C@H](Cc1ccccc1)NC(=O)[C@H](CCC(N)=O)NC(=O)[C@H](CC(N)=O)NC(=O)[C@H](C)NC(=O)[C@@H](NC(=O)[C@H](CCC(N)=O)NC(=O)[C@H](CCCCN)NC(=O)[C@H](CCC(N)=O)NC(C)=O)[C@@H](C)CC)C(=O)N[C@@H](CO)C(=O)N[C@@H](CCC(N)=O)C(=O)N[C@H](C(=O)N[C@@H](CCC(N)=O)C(=O)N[C@@H](CCC(=O)O)C(=O)N[C@@H](CO)C(=O)N[C@@H](CC(C)C)C(=O)N[C@H](C(=O)N[C@H](C(=O)N[C@H](C(=O)N[C@@H](CO)C(=O)N[C@H](C(=O)N[C@@H](C)C(=O)N[C@@H](CC(C)C)C(=O)NCC(=O)N[C@@H](CCCCN)C(=O)N[C@@H](CC(C)C)C(=O)N[C@@H](CCC(N)=O)C(=O)N[C@@H](CC(=O)O)C(=O)N[C@H](C(=O)N[C@H](C(=O)N[C@@H](CC(N)=O)C(=O)N[C@@H](CCC(N)=O)C(N)=O)C(C)C)C(C)C)[C@@H](C)O)[C@@H](C)O)[C@@H](C)O)[C@@H](C)O)[C@@H](C)CC` [HR-N8] was tested. Which “interaction with HR-C1 (in words)” value did it give?
A: No interactions

Q: With `CC[C@H](C)[C@H](NC(=O)[C@H](C)NC(=O)CNC(=O)[C@H](Cc1ccccc1)NC(=O)[C@H](CC(N)=O)NC(=O)[C@H](CO)NC(=O)[C@H](CO)NC(=O)[C@H](CC(C)C)NC(=O)[C@H](CCC(N)=O)NC(=O)[C@H](CCCCN)NC(=O)[C@@H](NC(=O)[C@H](CC(C)C)NC(=O)[C@@H](NC(=O)[C@H](CC(N)=O)NC(=O)[C@H](CC(C)C)NC(=O)[C@H](C)NC(=O)[C@H](CCC(N)=O)NC(=O)[C@H](C)NC(=O)[C@H](CC(N)=O)NC(=O)[C@H](CCC(N)=O)NC(=O)[C@H](CC(N)=O)NC(=O)[C@@H](NC(=O)[C@@H](NC(=O)[C@H](CC(=O)O)NC(=O)[C@H](CCC(N)=O)NC(=O)[C@H](CC(C)C)NC(=O)[C@H](CCCCN)NC(=O)CNC(=O)[C@H](CC(C)C)NC(=O)[C@H](C)NC(=O)[C@@H](NC(=O)[C@H](CO)NC(=O)[C@@H](NC(C)=O)[C@@H](C)O)[C@@H](C)O)C(C)C)C(C)C)[C@@H](C)O)C(C)C)C(=O)N[C@@H](CO)C(=O)N[C@@H](CO)C(N)=O` [HR-N11] as the compound, how does the “interaction with HR-C1 (in words)” value read?
A: absence of any observable interaction

Q: With `CC[C@H](C)[C@H](NC(=O)[C@H](C)NC(=O)[C@H](CCCCN)NC(=O)[C@H](CC(N)=O)NC(=O)[C@H](Cc1ccccc1)NC(C)=O)C(=O)N[C@@H](CO)C(=O)N[C@@H](CCC(N)=O)C(=O)N[C@H](C(=O)N[C@@H](CCC(N)=O)C(=O)N[C@@H](CCC(=O)O)C(=O)N[C@@H](CO)C(=O)N[C@@H](CC(C)C)C(=O)N[C@H](C(=O)N[C@H](C(=O)N[C@H](C(=O)N[C@@H](CO)C(=O)N[C@H](C(=O)N[C@@H](C)C(=O)N[C@@H](CC(C)C)C(=O)NCC(=O)N[C@@H](CCCCN)C(=O)N[C@@H](CC(C)C)C(=O)N[C@@H](CCC(N)=O)C(=O)N[C@@H](CC(=O)O)C(=O)N[C@H](C(=O)N[C@H](C(=O)N[C@@H](CC(N)=O)C(=O)N[C@@H](CCC(N)=O)C(=O)N[C@@H](CC(N)=O)C(=O)N[C@@H](C)C(=O)N[C@@H](CCC(N)=O)C(=O)N[C@@H](C)C(=O)N[C@@H](CC(C)C)C(=O)N[C@@H](CC(N)=O)C(=O)N[C@H](C(N)=O)[C@@H](C)O)C(C)C)C(C)C)[C@@H](C)O)[C@@H](C)O)[C@@H](C)O)[C@@H](C)O)[C@@H](C)CC` [HR-N9] as the compound, how does the “induction of ellipticity at 222 nm with HR-C1” value read?
A: 3,500 degrees

Q: Which “induction of ellipticity at 222 nm with HR-C1” value does the source give for `CC[C@H](C)[C@H](NC(C)=O)C(=O)N[C@@H](CCC(N)=O)C(=O)N[C@@H](CCC(=O)O)C(=O)N[C@@H](CO)C(=O)N[C@@H](CC(C)C)C(=O)N[C@H](C(=O)N[C@H](C(=O)N[C@H](C(=O)N[C@@H](CO)C(=O)N[C@H](C(=O)N[C@@H](C)C(=O)N[C@@H](CC(C)C)C(=O)NCC(=O)N[C@@H](CCCCN)C(=O)N[C@@H](CC(C)C)C(=O)N[C@@H](CCC(N)=O)C(=O)N[C@@H](CC(=O)O)C(=O)N[C@H](C(=O)N[C@H](C(=O)N[C@@H](CC(N)=O)C(=O)N[C@@H](CCC(N)=O)C(=O)N[C@@H](CC(N)=O)C(=O)N[C@@H](C)C(=O)N[C@@H](CCC(N)=O)C(=O)N[C@@H](C)C(=O)N[C@@H](CC(C)C)C(=O)N[C@@H](CC(N)=O)C(=O)N[C@H](C(=O)N[C@@H](CC(C)C)C(=O)N[C@H](C(=O)N[C@@H](CCCCN)C(=O)N[C@@H](CCC(N)=O)C(=O)N[C@@H](CC(C)C)C(=O)N[C@@H](CO)C(=O)N[C@@H](CO)C(N)=O)C(C)C)[C@@H](C)O)C(C)C)C(C)C)[C@@H](C)O)[C@@H](C)O)[C@@H](C)O)[C@@H](C)O` [HR-N10] here?
A: 9,600 degrees

Q: Which “interaction with HR-C1 (in words)” value does the source give for `CC[C@H](C)[C@H](NC(=O)[C@H](C)NC(=O)[C@H](CCCCN)NC(=O)[C@H](CC(N)=O)NC(=O)[C@H](Cc1ccccc1)NC(=O)[C@H](CCC(N)=O)NC(=O)[C@H](CC(N)=O)NC(=O)[C@H](C)NC(=O)[C@@H](NC(=O)[C@H](CCC(N)=O)NC(=O)[C@H](CCCCN)NC(=O)[C@H](CCC(N)=O)NC(=O)[C@H](CC(N)=O)NC(=O)[C@H](CCC(=O)O)NC(=O)[C@H](Cc1ccc(O)cc1)NC(=O)[C@H](CC(C)C)NC(=O)[C@@H](NC(=O)[C@H](CC(N)=O)NC(=O)[C@H](CCC(N)=O)NC(C)=O)C(C)C)[C@@H](C)CC)C(=O)N[C@@H](CO)C(=O)N[C@@H](CCC(N)=O)C(=O)N[C@H](C(=O)N[C@@H](CCC(N)=O)C(=O)N[C@@H](CCC(=O)O)C(=O)N[C@@H](CO)C(=O)N[C@@H](CC(C)C)C(=O)N[C@H](C(=O)N[C@H](C(=O)N[C@H](C(=O)N[C@@H](CO)C(=O)N[C@H](C(=O)N[C@@H](C)C(=O)N[C@@H](CC(C)C)C(=O)NCC(=O)N[C@@H](CCCCN)C(N)=O)[C@@H](C)O)[C@@H](C)O)[C@@H](C)O)[C@@H](C)O)[C@@H](C)CC` [HR-N7] here?
A: No interactions

Q: For `CC[C@H](C)[C@H](NC(=O)CNC(=O)[C@H](CC(N)=O)NC(=O)[C@H](Cc1ccccc1)NC(C)=O)C(=O)NCC(=O)N[C@H](C(=O)N[C@H](C(=O)N[C@@H](CCC(N)=O)C(=O)N[C@@H](CC(N)=O)C(=O)N[C@H](C(=O)N[C@@H](CC(C)C)C(=O)N[C@@H](Cc1ccc(O)cc1)C(=O)N[C@@H](CCC(=O)O)C(=O)N[C@@H](CC(N)=O)C(=O)N[C@@H](CCC(N)=O)C(=O)N[C@@H](CCCCN)C(=O)N[C@@H](CCC(N)=O)C(=O)N[C@H](C(=O)N[C@@H](C)C(=O)N[C@@H](CC(N)=O)C(=O)N[C@@H](CCC(N)=O)C(=O)N[C@@H](Cc1ccccc1)C(=O)N[C@@H](CC(N)=O)C(=O)N[C@@H](CCCCN)C(=O)N[C@@H](C)C(=O)N[C@H](C(=O)N[C@@H](CO)C(=O)N[C@@H](CCC(N)=O)C(=O)N[C@H](C(=O)N[C@@H](CCC(N)=O)C(=O)N[C@@H](CCC(=O)O)C(=O)N[C@@H](CO)C(=O)N[C@@H](CC(C)C)C(=O)N[C@H](C(=O)N[C@H](C(N)=O)[C@@H](C)O)[C@@H](C)O)[C@@H](C)CC)[C@@H](C)CC)[C@@H](C)CC)C(C)C)[C@@H](C)O)C(C)C` [HR-N6], which “interaction with HR-C1 (in words)” value is on record?
A: No interactions
